For series [1], the system named is Staphylococcus aureus. Put plainly: Antibacterial activity against tiamulin-resistant/methicillin-resistant Staphylococcus aureus assessed as inhibition of bacterial growth. It is filed as functional.
For the next series, the system named is Enterococcus. Nature of the series: Antibacterial activity against vancomycin-resistant Enterococcus ATCC 700221 assessed as inhibition of bacterial growth measured after 24 hrs by MH broth based assay. The series is classed as functional.
For a further series, the system named is Klebsiella pneumoniae. Put plainly: Antibacterial activity against clinical isolate Klebsiella pneumoniae harbouring mcr-8 gene assessed as inhibition of bacterial growth measured after 24 hrs by MH broth based assay. It is filed as functional.
A further series has as its system Enterococcus lactis. Nature of the series: Antibacterial activity against clinical isolate Enterococcus lactis assessed as inhibition of bacterial growth measured after 24 hrs by MH broth based assay. It is filed as functional.
Series [2] relates to Staphylococcus aureus. Put plainly: Antibacterial activity against Staphylococcus aureus ATCC 29213 assessed as inhibition of bacterial growth measured after 24 hrs by MH broth based assay. The series is classed as functional.
A short description of series [3]: Toxicity in po dosed BABL/C mouse assessed as lethal dose measured upto 14 days. The series is classed as organism-based. The following applies: in vivo, time < 14 day.
For series [4], the system named is Staphylococcus aureus. Nature of the series: Antibacterial activity against clinical isolate multi-drug resistant Staphylococcus aureus sal assessed as reduction in log10 CFU at 1 times of MIC measured after 8 hrs by time-kill assay. The series is classed as functional, organism-based.
A further series deals with Aerococcus viridans. Put plainly: Antibacterial activity against clinical isolate Aerococcus viridans harbouring optrA and ErmA gene assessed as inhibition of bacterial growth measured after 24 hrs by MH broth based assay. The series is classed as functional.
For series [5], the system named is Streptococcus hyovaginalis. Nature of the series: Antibacterial activity against clinical isolate Streptococcus hyovaginalis harbouring ErmB and tetO gene assessed as inhibition of bacterial growth measured after 24 hrs by MH broth based assay. The series is classed as functional.
In series [6] the test system is Staphylococcus aureus. Put plainly: Antibacterial activity against compound-resistant/methicillin-resistant Staphylococcus aureus assessed as inhibition of bacterial growth. The series is classed as functional.
The subject of series [7] is Staphylococcus aureus. Nature of the series: Antibacterial activity against Staphylococcus aureus ATCC 29213 assessed as induction of bacterial fragmentation at 1 times of MIC by SEM analysis. The series is classed as functional, organism-based.
In series [8] the test system is Staphylococcus aureus. Nature of the series: Antibacterial activity against methicillin-resistant Staphylococcus aureus infected in rabbit RBC assessed as reduction in haemolysis by measuring haemoglobin level at 0.25 to 1 times of MIC by absorbance based analysis. The series is classed as functional, organism-based. The conditions noted are these: Erythrocyte.
Another series has as its system Streptococcus parasuis. Put plainly: Antibacterial activity against clinical isolate Streptococcus parasuis harbouring InuD gene assessed as inhibition of bacterial growth measured after 24 hrs by MH broth based assay. The series is classed as functional.
In series [9] the test system is Staphylococcus aureus. Put plainly: Antibacterial activity against Staphylococcus aureus ATCC 29213 assessed as induction of cell membrane perforation at 4 times of MIC by SEM analysis. It is filed as functional, organism-based.
For series [10], the system named is Streptococcus pneumoniae. Nature of the series: Antibacterial activity against Streptococcus pneumoniae ATCC 49619 assessed as inhibition of bacterial growth measured after 24 hrs by MH broth based assay. It is filed as functional.
The subject of another series is Streptococcus suis. Put plainly: Antibacterial activity against clinical isolate Streptococcus suis harbouring IsaE and ErmA gene assessed as inhibition of bacterial growth measured after 24 hrs by MH broth based assay. The series is classed as functional.
Series [11] relates to Streptococcus pneumoniae. Nature of the series: Antibacterial activity against clinical isolate Streptococcus pneumoniae harbouring ermB gene assessed as inhibition of bacterial growth measured after 24 hrs by MH broth based assay. It is filed as functional.
The subject of series [12] is Streptococcus hyovaginalis. Nature of the series: Antibacterial activity against clinical isolate Streptococcus hyovaginalis harbouring IsaE and optrA gene assessed as inhibition of bacterial growth measured after 24 hrs by MH broth based assay. It is filed as functional.
Series [13] relates to Staphylococcus aureus. Nature of the series: Antibacterial activity against methicillin-resistant Staphylococcus aureus […] assessed as post antibacterial effect by measuring time required for increase in log10 CFU/ml of bacteria at 2 times of MIC incubated for 1 hr by MH broth based assay. The series is classed as functional.
The subject of series [14] is Staphylococcus aureus. Put plainly: Antibacterial activity against Staphylococcus aureus ATCC 29213 assessed as inhibition of bacterial division at 4 times of MIC by SEM analysis. The series is classed as functional, organism-based.
Series [15] relates to Staphylococcus aureus. Nature of the series: Antibacterial activity against 2 times of MIC treated methicillin-resistant Staphylococcus aureus […] assessed as post-antibiotic sub-MIC effect by measuring time required for increase in log10 CFU/ml of bacteria at 0.25 to 0.5 times of MIC incubated for 1 hr by MH broth based assay. It is filed as functional.
For series [16], the system named is Staphylococcus aureus. Put plainly: Antibacterial activity against methicillin-resistant Staphylococcus aureus ATCC 43300 assessed as inhibition of bacterial growth measured after 24 hrs by MH broth based assay. The series is classed as functional.
Series [17] concerns Staphylococcus aureus. Nature of the series: Antibacterial activity against methicillin-resistant Staphylococcus aureus ATCC 43300 assessed as reduction in log10 CFU at 3 times of MIC measured after 8 hrs by time-kill assay. It is filed as functional.

The values below come from ChEMBL document CHEMBL5346923, “Novel pyridinium cationic pleuromutilin analogues overcoming bacterial multidrug resistance” (Eur J Med Chem, 2023).

Activity calls are given as the source filed them. The calls are words filed in the database; no cut-off is given here.

In general, MIC refers to the lowest concentration found to suppress growth. For orientation: LD50 means the dose expected to kill half of the subjects tested. For `C=C[C@]1(C)C[C@@H](OC(=O)CSc2cc[n+](CCCCCCC)cc2)[C@]2(C)[C@H](C)CC[C@]3(CCC(=O)[C@H]32)[C@@H](C)[C@@H]1O.[I-]`, the minimum inhibitory concentration (MIC) is 0.5 µg/mL with Staphylococcus aureus [1]; 4 µg/mL in the series on Enterococcus; 2 µg/mL with Klebsiella pneumoniae; 32 µg/mL with Enterococcus lactis; 0.063 µg/mL in the series with Staphylococcus aureus [2]; 2 µg/mL in the series on Aerococcus viridans. The minimal inhibitory concentration (MIC) is 32 µg/mL in [5]; 0.5 µg/mL in the series on Staphylococcus aureus [6]; 16 µg/mL with Streptococcus parasuis; under 0.031 µg/mL with Streptococcus pneumoniae [10]; 16 µg/mL in the series on Streptococcus suis; 0.5 µg/mL with Streptococcus pneumoniae [11]. Besides, the MIC in series [12] came out at 32 µg/mL; with Staphylococcus aureus [16], 0.063 µg/mL. Besides, the LD50 at 336 h in series [3] was 879 mg/kg. In addition, the outcome in the series on Staphylococcus aureus [4], with Staphylococcus aureus [7], in the series on Staphylococcus aureus [8], in the series on Staphylococcus aureus [9] and with Staphylococcus aureus [14] was Active. Further, the Time in the series with Staphylococcus aureus [13] is 2.31 h; in the series with Staphylococcus aureus [15], 2.62 h. In the series with Staphylococcus aureus [17], the Activity was 2 log10CFU/ml.
